Measurements as given in patent publication US11058742B2, “Food composition for suppressing hepatic lipogenesis” (FUJI OIL HOLDINGS INC., priority 2019, dated 2021).

Key:
Fasn gene mRNA [1] = test: Secondary screening: expression level of Fasn gene mRNA in isolated hepatocyte derived from wild-type mouse; assay type: cell-based, mouse (C57BL/6J); conditions: each peptide 100 μg/ml final concentration, 24 hours, with insulin, LXR agonist, amino acid mixture; vs control (10% DMSO)
Experimental: (§1) In the secondary screening, evaluation is performed by measuring the expression level of Fasn gene mRNA using isolated hepatocyte derived from wild-type mouse (C57BL/6J mouse). More specifically, isolated hepatocyte derived from wild-type mouse (C57BL/6J mouse) is plated in 12-well plate in Dulbecco's modified Eagle's medium (DMEM) containing 1% penicillin and streptomycin, and 10% fetal calf serum (FCS) for 8 hours, and then subjected to 16 hours starvation by replacing the medium with Dulbecco's modified Eagle's medium (DMEM) containing 1% penicillin and streptomycin. The medium is recovered and cultured for 24 hours in a medium containing insulin, liver X receptor (LXR) agonist, amino acid mixture, and each peptide (100 μg/ml in the medium at final concentration). In addition, as a group without adding peptide, a sample to which 10% dimethyl sulfoxide (DMSO) is added instead of the peptide is similarly cultured for 24 hours. After removing the medium from each well, mRNA is extracted. The extraction of mRNA is performed with the SV Total RNA Isolation System (Promega, Z3105), reverse transcription from the RNA is performed with the PrimeScript RT reagent kit (Takara, RR0037A), and quantitative PCR is performed with the CFX384 Real-Time System and C1000 Thermal Cycler using the SYBR Select Master Mix kit (Life technologies, 4472908). The methods comply with the instructions for the kit and equipment.

Fasn gene mRNA [2] = test: Tertiary screening: Fasn gene expression level with changed amount of peptide; assay type: cell-based, mouse (C57BL/6J); conditions: for effect of suppressing hepatic lipogenesis: conclusion from the results of primary to tertiary screening; for Fasn gene expression level (significantly reduced compared to the blank): final concentration of the sample 10, 30, 100 μg/ml, otherwise as secondary screening
Experimental: as §1
The amount of peptide to be added is changed (as used herein, the final concentration of the sample is 10, 30, 100 μg/ml, unless otherwise specified), and the expression level of the Fasn gene is evaluated in the same manner as in the secondary screening.

Substance	Fasn gene expression level (significantly reduced compared to the blank) (Fasn gene mRNA [1])	effect of suppressing hepatic lipogenesis (Fasn gene mRNA [2])	Fasn gene expression level (significantly reduced compared to the blank) (Fasn gene mRNA [2])
Ala-Gly	significantly suppressed the expression of the Fasn gene	an effect of suppressing hepatic lipogenesis was confirmed	significantly suppressed the expression of the Fasn gene
Ala-His	significantly suppressed the expression of the Fasn gene	–	–
Ala-Tyr	significantly suppressed the expression of the Fasn gene	–	–
Arg-Ala-Val	–	an effect of suppressing hepatic lipogenesis was confirmed	significantly suppressed the expression of the Fasn gene
Arg-Trp-Phe	–	an effect of suppressing hepatic lipogenesis was confirmed	significantly suppressed the expression of the Fasn gene
Asn-Arg-Val	–	an effect of suppressing hepatic lipogenesis was confirmed	significantly suppressed the expression of the Fasn gene
Asn-Gly-Arg	–	an effect of suppressing hepatic lipogenesis was confirmed	significantly suppressed the expression of the Fasn gene
Asp-Phe-Phe	–	an effect of suppressing hepatic lipogenesis was confirmed	significantly suppressed the expression of the Fasn gene
Asp-Val-Phe	–	an effect of suppressing hepatic lipogenesis was confirmed	significantly suppressed the expression of the Fasn gene
Gln-Glu-Glu	–	an effect of suppressing hepatic lipogenesis was confirmed	significantly suppressed the expression of the Fasn gene
Gly-Ser-Leu	–	an effect of suppressing hepatic lipogenesis was confirmed	significantly suppressed the expression of the Fasn gene
His-Ala-Gln	–	an effect of suppressing hepatic lipogenesis was confirmed	significantly suppressed the expression of the Fasn gene
His-Asn	significantly suppressed the expression of the Fasn gene	an effect of suppressing hepatic lipogenesis was confirmed	significantly suppressed the expression of the Fasn gene
His-Ser	significantly suppressed the expression of the Fasn gene	an effect of suppressing hepatic lipogenesis was confirmed	significantly suppressed the expression of the Fasn gene
His-Thr	significantly suppressed the expression of the Fasn gene	an effect of suppressing hepatic lipogenesis was confirmed	significantly suppressed the expression of the Fasn gene
His-Trp	significantly suppressed the expression of the Fasn gene	an effect of suppressing hepatic lipogenesis was confirmed	significantly suppressed the expression of the Fasn gene
Ile-Asp-Arg	–	an effect of suppressing hepatic lipogenesis was confirmed	significantly suppressed the expression of the Fasn gene
Ile-His-Arg	–	an effect of suppressing hepatic lipogenesis was confirmed	significantly suppressed the expression of the Fasn gene
Ile-Ile-Pro	–	an effect of suppressing hepatic lipogenesis was confirmed	significantly suppressed the expression of the Fasn gene

Substance	Fasn gene expression level (significantly reduced compared to the blank) (Fasn gene mRNA [1])	effect of suppressing hepatic lipogenesis (Fasn gene mRNA [2])	Fasn gene expression level (significantly reduced compared to the blank) (Fasn gene mRNA [2])
Ile-Val-Ile	–	an effect of suppressing hepatic lipogenesis was confirmed	significantly suppressed the expression of the Fasn gene
Leu-Arg-Asp	–	an effect of suppressing hepatic lipogenesis was confirmed	significantly suppressed the expression of the Fasn gene
Leu-Val-Ile	–	an effect of suppressing hepatic lipogenesis was confirmed	significantly suppressed the expression of the Fasn gene
Lys-Leu-Gly	–	an effect of suppressing hepatic lipogenesis was confirmed	significantly suppressed the expression of the Fasn gene
Lys-Pro-Ile	–	an effect of suppressing hepatic lipogenesis was confirmed	significantly suppressed the expression of the Fasn gene
Phe-Ile-Arg	–	an effect of suppressing hepatic lipogenesis was confirmed	significantly suppressed the expression of the Fasn gene
Pro-Phe-Tyr	–	an effect of suppressing hepatic lipogenesis was confirmed	significantly suppressed the expression of the Fasn gene
Ser-Gly-Glu	–	an effect of suppressing hepatic lipogenesis was confirmed	significantly suppressed the expression of the Fasn gene
Ser-Ser-Val	–	an effect of suppressing hepatic lipogenesis was confirmed	significantly suppressed the expression of the Fasn gene
Trp-Glu	significantly suppressed the expression of the Fasn gene	an effect of suppressing hepatic lipogenesis was confirmed	significantly suppressed the expression of the Fasn gene
Trp-Lys	significantly suppressed the expression of the Fasn gene	an effect of suppressing hepatic lipogenesis was confirmed	significantly suppressed the expression of the Fasn gene
Tyr-Lys	significantly suppressed the expression of the Fasn gene	an effect of suppressing hepatic lipogenesis was confirmed	significantly suppressed the expression of the Fasn gene
Tyr-Ser	significantly suppressed the expression of the Fasn gene	an effect of suppressing hepatic lipogenesis was confirmed	significantly suppressed the expression of the Fasn gene
Tyr-Tyr	significantly suppressed the expression of the Fasn gene	an effect of suppressing hepatic lipogenesis was confirmed	significantly suppressed the expression of the Fasn gene
Val-Ile-Leu	–	an effect of suppressing hepatic lipogenesis was confirmed	significantly suppressed the expression of the Fasn gene
Val-Leu-Gln	–	an effect of suppressing hepatic lipogenesis was confirmed	significantly suppressed the expression of the Fasn gene
Val-Met	significantly suppressed the expression of the Fasn gene	an effect of suppressing hepatic lipogenesis was confirmed	significantly suppressed the expression of the Fasn gene
Val-Phe-Val	–	an effect of suppressing hepatic lipogenesis was confirmed	significantly suppressed the expression of the Fasn gene
